Assay results published in ChEMBL document CHEMBL1141145, “A chiral benzoquinolizine-2-carboxylic acid arginine salt active against vancomycin-resistant Staphylococcus aureus” (J Med Chem, 2005).
Values after ≈ are worked out from the molar mass of the structure shown. Numbered stars: 1 amine (or outer) side, 2 acyl side, 3 side chain; on linkers, the order of the positions; unused ones are H or OH. Bridge positions count the residues as written; N and C are the ends. Square brackets hold non-standard residues; d marks the D form. Peptide text beside a SMILES is read from it. * marks the point of attachment. X1 = O=C1C[C@@H](C(=O)[*:2])N([*:1])C[C@H]1CS[C@@H]1CN2CCC1CC2; NMePhe(4-NMe2) = CN[C@@H](Cc1ccc(N(C)C)cc1)C(=O)O; Picolinoyl(3-OH) = O=C(c1ncccc1O)*; Phg = N[C@H](C(=O)O)c1ccccc1; dAbu = CC[C@@H](N)C(=O)O

Assays:
Staphylococcus aureus [1] = experiment: Minimum inhibitory concentration against methicillin susceptible Staphylococcus aureus before esterase action in rat serum; assay type: functional
Mus musculus [2] = experiment: Protection of mice infected with MRSA-32 cell suspension after oral administration of compound; assay type: functional
Staphylococcus aureus [3] = experiment: Minimum inhibitory concentration against methicillin susceptible Staphylococcus aureus after esterase action in rat serum; assay type: functional
Staphylococcus aureus [4] = experiment: Minimum inhibitory concentration against methicillin susceptible Staphylococcus aureus; assay type: functional
Staphylococcus aureus [5] = experiment: microbe, parasite or virus in culture
Description: Minimum inhibitory concentration against methicillin-resistant Staphylococcus aureus-32

Staphylococcus aureus [6] = experiment: microbe, parasite or virus in culture; remark: listed apart in the source
Description: Minimum inhibitory concentration against methicillin-resistant Staphylococcus aureus-5023

Staphylococcus aureus [7] = experiment: microbe, parasite or virus in culture; remark: listed apart in the source
Description: Minimum inhibitory concentration against methicillin-resistant Staphylococcus aureus-33

Staphylococcus aureus [8] = experiment: Minimum inhibitory concentration against vancomycin intermediate Staphylococcus aureus MU 3; assay type: functional
Staphylococcus aureus [9] = experiment: Minimum inhibitory concentration against vancomycin intermediate Staphylococcus aureus MU 50; assay type: functional
Staphylococcus aureus [10] = experiment: Minimum inhibitory concentration against vancomycin-resistant Staphylococcus aureus (Hershey); assay type: functional
[11] = target: DNA topoisomerase 4 subunit A (Staphylococcus aureus) (UniProt P0C1U9)
[12] = target: DNA gyrase (Staphylococcus aureus) (UniProt P0A0K8+P20831)
Description: Stimulation of DNA cleavage complex formation in DNA gyrase from Staphylococcus aureus ISP 794

Staphylococcus aureus [13] = experiment: Minimum inhibitory concentration against methicillin susceptible Staphylococcus aureus in the absence of esterase action; assay type: functional
Mus musculus [14] = experiment: Protection of mice infected with MRSA-32 cell suspension after s.c. administration of compound; assay type: functional; settings: MRSA-32, sc
Rattus norvegicus = experiment: Amount of drug at which at 14 days of daily administration produced no venous blockage or phlebitis in rats; assay type: functional
[15] = Mus musculus, MRSA-32, po, read-out: ED50
[16] = Staphylococcus aureus, read-out: MIC

| MIC (Staphylococcus aureus [1]) [µg/mL] | MIC (Staphylococcus aureus [3]) [µg/mL] | Structure (SMILES) | ED50 (Mus musculus [2]; [15]) [mg/kg] | other results |
| --- | --- | --- | --- | --- |
| 8 (≈ 18.5 µM) | 4 (≈ 9.25 µM) | COC(=O)COC(=O)c1cn2c3c(c(N4CCC(O)CC4)c(F)cc3c1=O)CC[C@@H]2C | > 150 | – |
| – | – | C[C@H]1CCc2c(N3CCC(O)CC3)c(F)cc3c(=O)c(C(=O)O)cn1c23.NCCCC[C@H](N)C(=O)O | > 100 | MIC (Staphylococcus aureus [4]; [16]): 0.03 µg/mL |
| – | – | CCCCCCCCCC(=O)N[C@@H](Cc1c[nH]c2ccccc12)C(=O)N[C@H](CC(N)=O)C(=O)N[C@@H](CC(=O)O)C(=O)N[C@@H]1C(=O)NCC(=O)N[C@@H](CCCN)C(=O)N[C@@H](CC(=O)O)C(=O)N[C@H](C)C(=O)N[C@@H](CC(=O)O)C(=O)NCC(=O)N[C@H](CO)C(=O)N[C@@H]([C@H](C)CC(=O)O)C(=O)N[C@@H](CC(=O)c2ccccc2N)C(=O)O[C@@H]1C | – | MIC (Staphylococcus aureus [5]): 0.25 µg/mL (≈ 0.154 µM); MIC (Staphylococcus aureus [6]): 250 µg/mL (≈ 154 µM); MIC (Staphylococcus aureus [7]): 0.25 µg/mL (≈ 0.154 µM); MIC (Staphylococcus aureus [8]): 0.25 µg/mL (≈ 0.154 µM); MIC (Staphylococcus aureus [9]): 0.5 µg/mL (≈ 0.309 µM); MIC (Staphylococcus aureus [10]): 0.5 µg/mL (≈ 0.309 µM) |
| – | – | C[C@H]1CCc2c(N3CCC(O)CC3)c(F)cc3c(=O)c(C(=O)O)cn1c23.N=C(N)NCCC[C@H](N)C(=O)O (stereo in doubt; 20) | – | ED50 (Mus musculus [2]): >100 mg/kg; MIC (Staphylococcus aureus [4]): 0.03 µg/mL |
| – | – | C[C@H]1CCc2c(N3CCC(O)CC3)c(F)cc3c(=O)c(C(=O)O)cn1c23 | – | CC50 [11]: 2.5 µg/mL (≈ 6.94 µM); CC50 [12]: 5 µg/mL (≈ 13.9 µM) |
| 0.5 (≈ 1.12 µM) | 0.25 (≈ 0.562 µM) | C[C@H]1CCc2c(N3CCC(OC(=O)C(C)(C)C)CC3)c(F)cc3c(=O)c(C(=O)O)cn1c23 | > 100 | – |
| – | – | CCN(CC)CCS(=O)(=O)[C@@H]1CCN2C(=O)c3coc(n3)CC(=O)C[C@H](O)/C=C(C)/C=C/CNC(=O)/C=C/[C@@H](C)[C@@H](C(C)C)OC(=O)[C@@H]12.CC[C@H]1NC(=O)[C@@H](NC(=O)c2ncccc2O)[C@@H](C)OC(=O)[C@H](c2ccccc2)NC(=O)[C@@H]2CC(=O)[C@H](CS[C@@H]3CN4CCC3CC4)CN2C(=O)[C@H](Cc2ccc(N(C)C)cc2)N(C)C(=O)[C@@H]2CCCN2C1=O [QUINUPRISTIN/DALFOPRISTIN] ({Picolinoyl(3-OH)}-T[dAbu]P[NMePhe(4-NMe2)][X1][Phg]; ester 1-C) | – | MIC (Staphylococcus aureus [5]): 0.5 µg/mL; MIC (Staphylococcus aureus [6]): 1 µg/mL; MIC (Staphylococcus aureus [7]): 1 µg/mL; MIC (Staphylococcus aureus [8]): 1 µg/mL; MIC (Staphylococcus aureus [9]): 1 µg/mL; MIC (Staphylococcus aureus [10]): 1 µg/mL |
| – | – | C[C@H]1CCc2c(N3CCC(O)CC3)c(F)cc3c(=O)c(C(=O)[O-])cn1c23.[K+] | > 100 | MIC (Staphylococcus aureus [4]; [16]): 0.03 µg/mL |
| 0.25 (≈ 0.528 µM) | 0.1 (≈ 0.211 µM) | C[C@H]1CCc2c(N3CCC(O)CC3)c(F)cc3c(=O)c(C(=O)OCCN4CCOCC4)cn1c23 | > 100 | – |
| – | – | C[C@H]1CCc2c(N3CCC(O)CC3)c(F)cc3c(=O)c(C(=O)O)cn1c23 [LEVONADIFLOXACIN] | 62.3 | MIC (Staphylococcus aureus [13]): 0.03 µg/mL (≈ 0.0832 µM); ED50 (Mus musculus [14]): 24.8 mg/kg |
| 2 (≈ 4.24 µM) | 0.25 (≈ 0.53 µM) | C[C@H]1CCc2c(N3CCC(O)CC3)c(F)cc3c(=O)c(C(=O)OCCN4CCCCC4)cn1c23 | > 150 | – |
| 8 (≈ 21.4 µM) | 1 (≈ 2.67 µM) | COC(=O)c1cn2c3c(c(N4CCC(O)CC4)c(F)cc3c1=O)CC[C@@H]2C | > 100 | – |
| – | – | C[C@H]1CCc2c(N3CCC(O)CC3)c(F)cc3c(=O)c(C(=O)[O-])cn1c23.[Na+] | 60 | NOEL (Rattus norvegicus): <250 mg/kg; MIC (Staphylococcus aureus [4]; [16]): 0.03 µg/mL |
| – | – | C[C@H]1CCc2c(N3CCC(O)CC3)c(F)cc3c(=O)c(C(=O)O)cn1c23.N=C(N)NCCC[C@H](N)C(=O)O (stereo in doubt; 19) | 90.3 | MIC (Staphylococcus aureus [4]; [16]): 0.03 µg/mL |

| Structure (SMILES) | MIC (Staphylococcus aureus [1]) [µg/mL] | MIC (Staphylococcus aureus [3]) [µg/mL] | ED50 (Mus musculus [2]; [15]) [mg/kg] | other results |
| --- | --- | --- | --- | --- |
| C[C@H]1CCc2c(N3CCC(OC(=O)[C@@H](N)CCC/N=C(\N)N[N+](=O)[O-])CC3)c(F)cc3c(=O)c(C(=O)O)cn1c23.O=C(O)C(F)(F)F | 0.25 | 0.06 | > 75 | – |
